Source: a melting point compilation (Tetko et al.; mined from patent text by program, amines drawn as free bases though some values may be those of a salt)

Row | SMILES | melting point [°C]
1 | CCCCCC[Si]1(CCCCCC)C([Si](C)(C)C)=C(c2ccccc2)C(c2ccccc2)=C1[Si](C)(C)C | 81
2 | CN1C(=O)C(Cc2ccccc2)Oc2ccc(N)cc21 (stereo unspecified) | 82 to 85
3 | O=c1c2cc(Oc3ccc(Cl)cc3)ccc2nnn1Cc1cccnc1 | 134 to 136
4 | CCOC(=O)C(=Cc1cccn2cc(C(C)(C)C)nc12)N=[N+]=[N-] | 108 to 110
5 | CNC(=O)c1ccc(F)c2c1CC(N(CCCc1c[nH]c3ccc(F)cc13)CC1CC1)CO2 (stereo unspecified) | 120
6 | O/N=C\c1cccc(Cl)c1 | 64 to 66
7 | O=C(O)CCCNC(=O)NCCCCC1CCSS1 (stereo unspecified) | 94 to 99
8 | C#CCc1c(C)nc2c(OCc3ccccc3OC)cccn12 | 134 to 136
9 | CCCCOCCOc1ccc(-c2ccc(N3CC=CC3)c(C=O)c2)cc1 | 79 to 81
10 | Cc1ccc(O)c2c1CCC2=NO | 148 to 150
11 | COc1cc(O)cc(C)c1C=CC(=O)c1ccc(O)cc1 | 197 to 198
12 | CCCCCCc1ccc(OCCCCCCCCCCCCCCCC(=O)NCCO)cc1O | 96.4
13 | Nc1ncc(Cc2cccc(-c3ccccc3)c2)c(N)n1 | 108 to 115
14 | C=C1CC2(C)CC(=O)C(C)(C)C12 (stereo unspecified) | -23 to -20
15 | O=C(O)c1cc(OCC(=O)c2ccccc2)cc(C(F)(F)F)c1 | 180 to 182
16 | CC(=O)Nc1nc(-c2ccc(F)c3ccccc23)cc(C(C)C)n1 | 115 to 117
17 | NCCCOc1ccc2cc(CC(=O)O)c(=O)n(Cc3ccccc3)c2c1 | 126 to 128
18 | CNc1ccccc1C(=O)CCl | 65 to 68
19 | CC(C)c1nn(-c2ccc(C(F)(F)F)cn2)cc1CCCOc1ccccc1CC(=O)O | 132 to 133
20 | CNc1coc2ccccc2c1=S | 134

Row | SMILES | melting point [°C]
21 | c1ccc(Cn2cnc(-c3cnc(-c4ccccc4)nc3)c2)cc1 | 195
22 | CC(C)(C)c1ccc2c(c1)C(C(=O)O)=Cc1ccccc1O2 | 72
23 | CC(C)Oc1cc(-n2c(=O)cc(C(F)(F)F)n(C)c2=O)c(F)cc1Cl | 90 to 93
24 | Cc1cc2c(cc1F)C(C)(C)CCC2(C)C | 90 to 91.8
25 | COC(COC(C)=O)C1(O)CCC2C3CCC4=CC(=O)CCC4(C)C3CCC21C (stereo unspecified) | 145 to 147
26 | COc1cccc(NC(=O)NC2C(=O)N(CC34CC5CC(CC(C5)C3)C4)c3ccccc3N(c3ccccc3)C2=O)c1 (stereo unspecified) | 267 to 268
27 | O=C1NC[C@@H]2CCCC[C@@H]12 (relative stereo) | 85 to 88
28 | O=C(c1ccc2nonc2c1)N1Cc2cccnc2Nc2ccccc21 | 193 to 194
29 | CC(=NO)c1ccnc(Cl)c1 | 143
30 | CCCN(CCC)C(=O)c1cc(C(=O)N[C@@H](Cc2cc(F)cc(F)c2)[C@H](O)CNC2(c3cc(CN(C)C)ccn3)CC2)cc(-c2ncco2)c1 | 70 to 72
31 | C[C@@H]1O[C@](/C=C/C2CC2)(C(F)(F)F)c2c(ccc(F)c2F)NC1=O (relative stereo) | 192 to 193
32 | CCCc1nn(-c2ccc(C(F)(F)F)cn2)cc1CCCO | 96 to 97
33 | CCC1C(=O)Oc2c(Oc3ccccc3Cl)cccc21 (stereo unspecified) | 78 to 79
34 | C=CCc1c(O)cc(C)c(O)c1C | 114 to 116
35 | COc1ccc(COc2ccc(-c3ccc(C(=O)O)c(=O)[nH]3)cc2OC)cc1OC | 217 to 218
36 | O=C(O)/C=C/c1ccc(/C=C/c2ccncc2)nc1 | > 250
37 | COc1ccc2c(c1)C(c1ccccc1Cl)C(=O)N2 (stereo unspecified) | 179
38 | O=c1oc2ccc(-c3ccc(F)cc3F)cc2c(=O)n1-c1ccc(F)c(F)c1 | 193 to 194
39 | COc1ccc(C=Cc2cc(I)c(OC)c(OC)c2)cc1O | 92 to 94
40 | CCCCn1c(=O)c2c(NCC)n[nH]c2n(Cc2ccc(OC)cc2)c1=O | 234 to 236

Row | SMILES | melting point [°C]
41 | COc1ccc(Cc2nc3cnc4cc(-c5ccccc5)ccc4c3n2CCOc2ccccc2)cc1 | 205 to 206
42 | N#Cc1ccc(-c2ccc3ccccc3c2)cc1Cn1cncn1 | 119 to 121
43 | CCCc1nc2c(N)nc3cc(OCCCn4cccc4)ccc3c2s1 | 152 to 154
44 | O=C(NC12CC3CC(CC(C3)C1)C2)c1cc(O)c(O)c(Cl)c1 | 244 to 247
45 | COc1c(O)ccc2oc(-c3ccc(O)cc3)cc12 | 165 to 168
46 | Cc1ncc(CO)c(C2NC(C(=O)O)C(C)(C)S2)c1O (stereo unspecified) | 201 to 202
47 | CCCCCCCCCCOCC(O)CO (stereo unspecified) | 38.5 to 39
48 | CCCCCCCCCCCCc1nnn(C(CCC)C(=O)Nc2c(OC)cc(OC)cc2OC)n1 (stereo unspecified) | 146 to 148
49 | O=C(Nc1c[nH]nc1C(=O)NCCNc1ccccc1)c1ccccn1 | 184 to 186
50 | COC(CSc1nc(SCc2ccccc2)n[nH]1)OC | 73 to 76
51 | CC(C)n1c(CC[C@@H](O)C[C@@H](O)CC(=O)OC(C)(C)C)c(-c2ccc(F)cc2)c(-c2ccccc2)c1C(N)=O | 94 to 96
52 | COC(=O)CC(CC(=O)OC)Sc1cc(OC)ccc1[N+](=O)[O-] | 91
53 | CC1CC(=Cc2ccccc2)c2nc3cc(N)ccc3c(=O)n21 (stereo unspecified) | 239 to 241
54 | CCCCNC(=O)Oc1ccc(Oc2ccccc2)cc1C(=O)OC | 53 to 56
55 | CC(C)C1N(CC(N)=O)C(=O)CN1C(=O)CN (stereo unspecified) | 205 to 211
56 | NS(=O)(=O)c1ccc(-n2nc(C(F)(F)F)c(Cl)c2-c2ccc(Cl)cc2)cc1 | 180 to 182
57 | COc1c(N2C[C@H]3CCOC[C@@]3(N)C2)c(F)cc2c(=O)c(C(=O)O)cn([C@@H]3C[C@@H]3F)c12 | 132 to 134
58 | CC(C)(C)c1cc(-c2n[nH]c(=O)o2)cc(C(C)(C)C)c1O | 246
59 | CC1(C)OCC(NC2COC(C)(C)OC2)CO1 | 65
60 | N#Cc1cccc2c1C(O)CC2 (stereo unspecified) | 73

Next, values leading:

Row | melting point [°C] | SMILES
61 | 172 to 174 | COc1ccc(-c2c(Cl)c(CNC(C)=O)nc3sc4c(c23)CCN(Cc2ccccc2)C4)cc1OC
62 | 222 to 223 | CC(C)(C)NC(=O)N1CCc2cc(S(=O)(=O)n3cc(-c4ccccc4)[nH]c3=O)ccc21
63 | 139 | COc1ccc(S(=O)(=O)Nc2cc(C(F)(F)F)ccc2Oc2ccccc2C(=O)O)cc1
64 | 231 to 232 | CC1(CN2CCN(c3cccccc3=O)CC2)NC(=O)NC1=O (stereo unspecified)
65 | 253 to 255 | CCC(CC)Cn1c(=O)c(=O)[nH]c2cc(Cl)ccc21
66 | 195 to 196 | CC1(C)CCSc2ccc(CC#Cc3ccc(C(=O)O)c(O)c3)cc21
67 | > 250 | CC(=O)Nc1nc2ccc(S(=O)(=O)n3c(CCCC(=O)O)cc4cc(Cl)ccc43)cc2s1
68 | 187 to 188 | Cc1onc(-c2ccc(Cl)cc2)c1CCC(=O)O
69 | 221 to 223 | CC(=O)Nc1ccc(C(=O)O)c(O)c1
70 | 65 to 69 | Cc1ccc(-c2c(NS(=O)(=O)c3ccc(C(C)(C)C)cc3)nc(NCCOC3CCCCO3)nc2OCCOc2ncc(Br)cn2)cc1 (stereo unspecified)
71 | 257 to 258 | Cc1nnc(NCCCN2CCCC2=O)c2c1cc1ccccn12
72 | 120 to 122 | CS(=O)(=O)Nc1ccc(C(O)CN2CCCCCC2)cc1 (stereo unspecified)
73 | 125 to 126 | Cc1cccc(C)c1C=NNC(=N)NCc1ccccc1
74 | 117 to 119 | CC(C)(C)OC(=O)CC1(CC(=O)O)CCC(=O)Nc2ccccc21 (stereo unspecified)
75 | 87.1 | CC(C(=O)NCCO)c1ccc(C(=O)c2cccs2)cc1 (stereo unspecified)
76 | 127 to 129 | CC(=O)OC(CF)c1cccnc1S(N)(=O)=O (stereo unspecified)
77 | 125 to 140 | COc1cc(C(=O)N2CCC(CCN3CCC(C(=O)c4nc5ccccc5n4CCCC(=O)O)CC3)(c3ccc(Cl)c(Cl)c3)C2)cc(OC)c1OC (stereo unspecified)
78 | 80 to 82 | COC(=O)Nc1cccc(F)c1I
79 | 85 to 87 | COP(=O)(O)CNc1cc(Cl)c(Oc2ccc(O)c3ccccc23)c(Cl)c1
80 | 105 to 107 | COC(=O)C(=O)c1ccc(OCCOc2ccc(C)cc2)cc1
81 | 58 to 60 | COC(=O)c1ccc(OCC=O)cc1

Row | melting point [°C] | SMILES
82 | 165 to 166 | COc1ccc(NC(=O)N(Cc2ccccn2)C2CCCCCC2)c(NC(=O)c2cc(C(C)(C)C)c(O)c(C(C)(C)C)c2)c1
83 | 128 to 131 | COc1ccc(Cc2cc(C3CCN(C(=O)NCc4ccccc4)CC3)nc(N)n2)cc1
84 | 223 | CCN(CC)C(=O)CNC1(c2ccccc2Cl)C(=O)Nc2ccc(Cl)cc21 (stereo unspecified)
85 | 101 to 102 | O=C(O)CCC(=O)C(=O)N1CCCC1
86 | 144 to 146 | COC(=O)c1ccc(NC(=O)CBr)cc1
87 | 142 to 143 | CC(C)(C)OC(=O)CSC(NCc1ccccc1)=C1C(=O)CCCC1=O
88 | 193 to 194 | O=C(NC(=S)Nc1nc(-c2ccc3c(c2)CCCC3)cs1)c1ccc(Cl)cc1
89 | 115 | CC#CCOc1ccc(S(=O)(=O)C2(C(=O)O)CCCN(Cc3ccc(Cl)cc3)C2)cc1 (stereo unspecified)
90 | 124 to 127 | Cc1ccc(C)c(NC(=O)N2CCC(c3nc(C4=NOC(c5ccccc5)C4)cs3)CC2)c1 (stereo unspecified)
91 | 182 to 184 | CC(C(=O)O)c1ccc2c(c1)CCc1cccnc1O2 (stereo unspecified)
92 | 58 to 59 | O=C(O)CCCN(C(=O)c1ccc(Cl)c(Cl)c1)c1ccc2c(c1)CCC2
93 | 87 | CC(Oc1ccc2nc(NC(=O)NCCN3CCN(C(=O)OC(C)(C)C)CC3)sc2c1)c1c(Cl)ccc(F)c1Cl (stereo unspecified)
94 | 231 to 233 | CC(=O)Nc1nc(C)c(S(=O)(=O)n2c(CCCC(=O)O)cc3cc(Cl)ccc32)s1
95 | 350 to 352 | O=C1CC(c2cccc3c2OCO3)=Nc2ccc(N3CCOCC3)cc21
96 | 198 | Cn1c(-c2ccc(Cl)cc2)nc2cc(CN3CCN(C(c4ccccc4)c4ccccc4)CC3)ccc21
97 | 180 to 182 | Cc1cc2c(cc1Cl)N(C(=O)CN1CCN(c3ncccn3)CC1)c1ccccc1N(C)S2(=O)=O
98 | 115 to 116 | COc1ccc(NS(=O)(=O)c2ccc([N+](=O)[O-])cc2[N+](=O)[O-])cc1
99 | 209 to 211 | Nc1ccc(N2CCCC2)nn1
100 | 179 to 180 | Cc1cc(C(=O)CS(C)(=O)=O)cc(C)c1N
101 | 118 to 120 | Fc1ccc2c(N3CCN(CCCCn4cc5ccccc5c4)CC3)csc2c1
